Measured values reported in US20200113181A1, “HERBICIDAL COMPOUNDS” (SYNGENTA PARTICIPATIONS AG, priority 2016, published 2020).

Columns and labels:
Format in all cases: in vivo
[1] = test system: wheat plants (Triticum aestivum (TRZAW)); assay: Crop phytotoxicity, wheat plants treated post-emergence
Protocol: (§1) Seeds of a variety of test species are sown in standard soil in pots (Lolium perenne (LOLPE), Setaria faberi (SETFA), Alopecurus myosuroides (ALOMY), Echinochloa crus-galli (ECHCG), Avena fatua (AVEFA)). After cultivation for one day (pre-emergence) or after 8 days cultivation (post-emergence) under controlled conditions in a glasshouse (at 24/16° C., day/night; 14 hours light; 65% humidity), the plants are sprayed with an aqueous spray solution derived from the formulation of the technical active ingredient in acetone/water (50:50) solution containing 0.5% Tween 20 (polyoxyethelyene sorbitan monolaurate, CAS RN 9005-64-5). Compounds are applied at […]. The test plants are then grown in a glasshouse under controlled conditions in a glasshouse (at 24/16° C., day/night; 14 hours light; 65% humidity) and watered twice daily. After 13 days for pre and post-emergence, the test is evaluated for the percentage damage caused to the plant. The biological activities are shown in the following table on a five point scale (5=80-100%; 4=60-79%; 3=40-59%; 2=20-39%; 1=0-19%).
Using procedures outlines above, wheat plants (Triticum aestivum (TRZAW) are treated post-emergence with compound 1.2 of the present invention or compound A-18 from WO 2013/079708. The results outlined in Table B2 below show % phytotoxicity observed and that compound 1.2 of the present invention is less damaging to wheat compared to compound A-18 disclosed in WO2013/079708.

[2] = test system: soybean plants (Glycine max (GLYMX)); assay: Crop phytotoxicity, soybean plants treated post-emergence
Protocol: [The procedure below names another organism; the source says it served here with some conditions changed.] as §1

[3] = test system: Echinochloa crus-galli (ECHCG); assay: Glasshouse herbicide test, pre- and post-emergence, Echinochloa crus-galli; conditions: 250 g/h, evaluated after 13 days; for ECHCG POST, percentage damage caused to the plant (five point scale): post-emergence; for ECHCG PRE, percentage damage caused to the plant (five point scale): pre-emergence
Protocol: as §1

Setaria faberi (SETFA) = assay: Glasshouse herbicide test, pre- and post-emergence, Setaria faberi; conditions: 250 g/h, evaluated after 13 days; for SETFA POST, percentage damage caused to the plant (five point scale): post-emergence; for SETFA PRE, percentage damage caused to the plant (five point scale): pre-emergence
Protocol: as §1

Lolium perenne (LOLPE) = assay: Glasshouse herbicide test, pre- and post-emergence, Lolium perenne; conditions: 250 g/h, evaluated after 13 days; for LOLPE POST, percentage damage caused to the plant (five point scale): post-emergence; for LOLPE PRE, percentage damage caused to the plant (five point scale): pre-emergence
Protocol: as §1

Avena fatua (AVEFA) = assay: Glasshouse herbicide test, pre- and post-emergence, Avena fatua; conditions: 250 g/h, evaluated after 13 days; for AVEFA POST, percentage damage caused to the plant (five point scale): post-emergence; for AVEFA PRE, percentage damage caused to the plant (five point scale): pre-emergence
Protocol: as §1

[4] = test system: Alopecurus myosuroides (ALOMY); assay: Glasshouse herbicide test, pre- and post-emergence, Alopecurus myosuroides; conditions: 250 g/h, evaluated after 13 days; for ALOMY POST, percentage damage caused to the plant (five point scale): post-emergence; for ALOMY PRE, percentage damage caused to the plant (five point scale): pre-emergence
Protocol: as §1

| SMILES | TRZAW % Phyto ([1]; rate 4 g/ha) [%] | TRZAW % Phyto ([1]; rate 16 g/ha) [%] | TRZAW % Phyto ([1]; rate 63 g/ha) [%] | GLYMX % Phyto ([2]; rate 15 g/ha) [%] | GLYMX % Phyto ([2]; rate 30 g/ha) [%] | GLYMX % Phyto ([2]; rate 60 g/ha) [%] | ECHCG POST, percentage damage caused to the plant (five point scale) [3] | ECHCG PRE, percentage damage caused to the plant (five point scale) [3] | SETFA POST, percentage damage caused to the plant (five point scale) (Setaria faberi (SETFA)) | SETFA PRE, percentage damage caused to the plant (five point scale) (Setaria faberi (SETFA)) | LOLPE POST, percentage damage caused to the plant (five point scale) (Lolium perenne (LOLPE)) | LOLPE PRE, percentage damage caused to the plant (five point scale) (Lolium perenne (LOLPE)) | AVEFA POST, percentage damage caused to the plant (five point scale) (Avena fatua (AVEFA)) | AVEFA PRE, percentage damage caused to the plant (five point scale) (Avena fatua (AVEFA)) | ALOMY POST, percentage damage caused to the plant (five point scale) [4] | ALOMY PRE, percentage damage caused to the plant (five point scale) [4] |
| --- | --- | --- | --- | --- | --- | --- | --- | --- | --- | --- | --- | --- | --- | --- | --- | --- |
| CC#Cc1cc(C)c(C2C(=O)[C@@H]3[C@H](C2=O)[C@H]2CC[C@@H]3O2)c(C)c1 (stereo partly drawn) [Compound A-18, reference compound] | 60 | 100 | 100 | 40 | 60 | 80 | – | – | – | – | – | – | – | – | – | – |
| CC#Cc1ccc(C2C(=O)[C@@H]3[C@H](C2=O)[C@H]2CC[C@@H]3O2)c(OC)c1 (stereo partly drawn) [Compound 1.2, 4-[2-methoxy-4-(prop-1-yn-1-yl)phenyl]-10-oxatricyclo[5.2.1.0^2,6]decane-3,5-dione] | 20 | 70 | 60 | – | – | – | 5 (5=80-100%) | 5 (5=80-100%) | 5 (5=80-100%) | 5 (5=80-100%) | 5 (5=80-100%) | 5 (5=80-100%) | 5 (5=80-100%) | 5 (5=80-100%) | – | – |
| CC#Cc1ccc(C2C(=O)[C@@H]3[C@@H]4O[C@@H](C[C@H]4CC)[C@@H]3C2=O)c(OC)c1 (stereo partly drawn) [Compound 1.23] | – | – | – | – | – | – | 5 (5=80-100%) | 5 (5=80-100%) | 5 (5=80-100%) | 5 (5=80-100%) | 5 (5=80-100%) | 5 (5=80-100%) | 5 (5=80-100%) | 5 (5=80-100%) | 5 (5=80-100%) | 5 (5=80-100%) |
| CC#Cc1ccc(C2C(=O)[C@@H]3[C@H](C2=O)[C@H]2CC[C@@H]3O2)c(OCC)c1 (mixture of isomers) [Compound 1.30] | – | – | – | – | – | – | 5 (5=80-100%) | 5 (5=80-100%) | – | 5 (5=80-100%) | 5 (5=80-100%) | 5 (5=80-100%) | 5 (5=80-100%) | 5 (5=80-100%) | 5 (5=80-100%) | 5 (5=80-100%) |
